Experiment [1] concerns the target T1, 5HT3 receptor (Rattus norvegicus, UniProt P35563).
T1 sequence (P35563 24-483): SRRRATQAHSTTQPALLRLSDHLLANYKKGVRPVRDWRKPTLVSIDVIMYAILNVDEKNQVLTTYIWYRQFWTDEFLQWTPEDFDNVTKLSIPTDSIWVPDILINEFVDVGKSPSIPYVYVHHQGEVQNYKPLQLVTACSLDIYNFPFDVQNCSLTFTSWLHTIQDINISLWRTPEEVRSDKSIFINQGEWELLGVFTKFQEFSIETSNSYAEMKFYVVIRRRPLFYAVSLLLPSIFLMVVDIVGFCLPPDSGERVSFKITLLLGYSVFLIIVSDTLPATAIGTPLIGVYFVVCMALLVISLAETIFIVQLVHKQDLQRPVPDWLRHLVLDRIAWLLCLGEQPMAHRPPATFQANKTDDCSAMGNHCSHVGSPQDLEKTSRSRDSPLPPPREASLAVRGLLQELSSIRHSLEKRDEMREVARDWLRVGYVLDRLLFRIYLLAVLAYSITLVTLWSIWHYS
Put plainly: Inhibition of the binding of ^3 H-GR65630; 5-HT3 binding affinity for rat entorhinal cortex. The arrangement: labeled in the entorhinal cortex of the rat brain; from tissue; host or cells: rat brain entorhinal cortex. The following applies: for fitting model of interaction / displacement of ^3 H-GR 65630: rat entorhinal cortex.

Experiment [2] deals with T1, 5HT3 receptor. Put plainly: Inhibition of the Bezold-Jarisch chemoreflex evoked by 5-HT in the anesthetized rat (in vivo 5HT3 antagonist activity). Conditions: 5-HT 20 μg/kg I.V.; for % inhibition: mean ± S.E.M. from 6 animals, *p < 0.01 vs controls (Dunnett's test); for ED50: iv, I.V., anesthetized rat, read-out: ED50 (limits). The arrangement: evoked by 5-HT in the anesthetised rat; from tissue; host or cells: whole anesthetized rat (in vivo). The method, then:
Ther. 248, 197-201 (1989).
Inhibition of the Bezold-Jarisch reflex elicited by 5-HT (20 μg/
Values are mean ± S.E.M. from 6 animals

The next experiment concerns the target 5-HT3 receptor. Put plainly: Inhibition of the binding of ^3 H-GR65630; 5-HT3 binding affinity for rat entorhinal cortex. Conditions: [^3 H] GR 65630 labeled 5HT3 sites; rat entorhinal cortex; two site non-linear fitting, low.

For the compound `Cc1nccn1CC1CCc2c(c3ccccc3n2C)C1=O` (racemic) [Ondansetron, (±)-1,2,3,4-tetrahydro-9-methyl-3-(2-methylimidazol-1-yl-methyl)-carbazol-4-one, reference compound], the “fitting model of interaction / displacement of ^3 H-GR 65630” value on 5HT3 receptor [1] was “two site non-linear fitting model”. The “% inhibition” value came out at 32.86 ± 8.58% on 5HT3 receptor [2] (1 μg/kg I.V.), 58.42 ± 3.89% at 5HT3 receptor [2] (3 μg/kg I.V.) and 81.21 ± 1.82% on 5HT3 receptor [2] (10 μg/kg I.V.). In addition, the ED50 on 5HT3 receptor [2] worked out at 2.25 µg/kg.
With `CN1C2CCCC1CC(NC(=O)c1cc(Cl)c(N)c3c1OCC3)C2` (stereo not drawn) [FCE 27270, 4-amino-5-chloro-N-(9-methyl-9-azabicyclo[3.3.1]non-3-yl)-2,3-dihydrobenzo[b]furan-7-carboxamide], the Ki amounted to 0.092 nM at 5HT3 receptor [1] and 39 nM at 5-HT3 receptor. Moreover, the “fitting model of interaction / displacement of ^3 H-GR 65630” value on 5HT3 receptor [1] is listed as “two site non-linear fitting model”. Also, the results for the “% inhibition” value on 5HT3 receptor [2] (0.1 μg/kg I.V.), at 5HT3 receptor [2] (0.3 μg/kg I.V.) and on 5HT3 receptor [2] (1 μg/kg I.V.) were 37.25 ± 2.77%, 54.09 ± 3.39% and 89.11 ± 3.39%, respectively. In addition, on 5HT3 receptor [2], the ED50 was 0.2 µg/kg.
`CN1C2CCC1CC(NC(=O)c1cc(Cl)c(N)c3c1OCC3)C2` (stereo not drawn) [FCE 27271, 4-amino-5-chloro-N-(8-methyl-8-azabicyclo[3.2.1]oct-3-yl)-2,3-dihydrobenzo[b]furan-7-carboxamide]: the Ki on 5HT3 receptor [1] came to 0.833 nM; at 5-HT3 receptor, 96.2 nM. For the same compound, the “fitting model of interaction / displacement of ^3 H-GR 65630” value on 5HT3 receptor [1] is recorded as “two site non-linear fitting model”. Besides, the “% inhibition” value on 5HT3 receptor [2] (0.1 μg/kg I.V.) amounted to 23.83 ± 5.50%; at 5HT3 receptor [2] (0.3 μg/kg I.V.), 55.69 ± 4.05%; at 5HT3 receptor [2] (1 μg/kg I.V.) it was 82.54 ± 2.33%. The ED50 on 5HT3 receptor [2] was 0.81 µg/kg.
Take `CN1C2CCC1CC(OC(=O)c1cc(Cl)cc(Cl)c1)C2` (stereo not drawn) [MDL 72222, reference compound]: at 5HT3 receptor [1], the “fitting model of interaction / displacement of ^3 H-GR 65630” value is “one site non-linear fitting”.
Take `CCN(CC)CCNC(=O)c1cc(Cl)c(N)cc1OC` [Metoclopramide, reference compound]: on 5HT3 receptor [1], the “fitting model of interaction / displacement of ^3 H-GR 65630” value was “one site non-linear fitting”.

Broadly, the % inhibition is the relative decrease from the control value, in per cent. For orientation: ED50 means the midpoint of the dose-response relation. By Ki is commonly meant a measure of affinity in units of concentration, obtained from inhibition or displacement. Read a high Ki as weaker binding.

These data come from patent US5362740A, “Dihydrobenzofuran carboxamides and process for their preparation” (Farmitalia Carlo Erba S.r.l., priority 1990, dated 1994).
